Laboratory results from patent US10433553B2, “Salts of N-(1,3,4-oxadiazol-2-yl) aryl carboxylic acid amides and the use of same as herbicides” (BAYER CROPSCIENCE AKTIENGESELLSCHAFT, priority 2015, dated 2019).
Read-outs that look alike come from different tables or passages of the source.

What was measured:
[1] = system: AMARE; experiment: Post-emergence herbicidal action against harmful plants; format: in vivo, Amaranthus retroflexus; settings: dosage 5 g/ha, assessed visually after about 3 weeks
Method: (§1) 2. Post-Emergence Herbicidal Action Against Harmful Plants
(§2) Seeds of monocotyledonous and dicotyledonous weed and crop plants are laid out in sandy loam in wood-fiber pots, covered with soil and cultivated in a greenhouse under good growth conditions. 2 to 3 weeks after sowing, the test plants are treated at the one-leaf stage.

[2] = system: ABUTH; experiment: Pre-emergence herbicidal action against harmful plants; format: in vivo, Abutilon theophrasti; settings: scored visually after 3 weeks
Method: (§3) 1. Pre-Emergence Herbicidal Action Against Harmful Plants
(§4) Seeds of monocotyledonous and dicotyledonous weed plants and crop plants are laid out in wood-fiber pots in sandy loam and covered with soil. […] The comparative tests were conducted by way of example on some weed plants and crop plants.

[3] = system: ZEAMX; experiment: Post-emergence damage to crop plants; format: in vivo; settings: dosage 5 g/ha, assessed visually after about 3 weeks
Method: as §1, §2

[4] = system: ALOMY; experiment: Pre-emergence herbicidal action against harmful plants; format: in vivo; settings: scored visually after 3 weeks
Method: as §3, §4

[5] = system: CYPES; experiment: as above; format: in vivo; settings: scored visually after 3 weeks
Method: as §3, §4

[6] = system: STEME; experiment: as above; format: in vivo, Stellaria media; settings: dosage 20 g/ha, scored visually after 3 weeks
Excerpt: as §3

[7] = system: TRZAS; experiment: Pre-emergence damage to crop plants; format: in vivo; settings: dosage 20 g/ha, scored visually after 3 weeks
Excerpt: as §3

[8] = system: ZEAMX; settings: pre-emergence, scored visually after 3 weeks
Method: as §3, §4

[9] = system: VERPE; experiment: Post-emergence herbicidal action against harmful plants; format: in vivo; settings: dosage 5 g/ha, assessed visually after about 3 weeks
Method: as §1, §2

[10] = system: ALOMY; experiment: as above; format: in vivo; settings: dosage 5 g/ha, assessed visually after about 3 weeks
Method: as §1, §2

[11] = system: TRZAS; experiment: Post-emergence damage to crop plants; format: in vivo; settings: dosage 5 g/ha, assessed visually after about 3 weeks
Method: as §1, §2

[12] = dosage 20 g/ha, 100% = plants have died, 0% = like control plants

SMILES: Cc1nnc(NC(=O)c2ccc(C(F)(F)F)c(S(C)(=O)=O)c2C)o1 [drawing 41]
- Activity against AMARE [1]: 100%

SMILES: Cc1nnc(NC(=O)c2ccc(C(F)(F)F)c(S(C)(=O)=O)c2C)o1 [drawing 21]
- Activity against ABUTH [2, 12]: 100%

SMILES: Cc1nnc(NC(=O)c2ccc(C(F)(F)F)c(S(C)(=O)=O)c2C)o1 [drawing 17]
- Activity against ABUTH [2, 12]: 100%

SMILES: Cc1nnc(NC(=O)c2ccc(C(F)(F)F)c(S(C)(=O)=O)c2C)o1 [drawing 48, reference compound]
- Activity against AMARE [1]: 40%

SMILES: Cc1nnc(NC(=O)c2ccc(C(F)(F)F)c(S(C)(=O)=O)c2C)o1 [drawing 18]
- Activity against ABUTH [2, 12]: 70%

SMILES: Cc1nnc([N-]C(=O)c2ccc(C(F)(F)F)c(S(C)(=O)=O)c2C)o1.[Na+] [drawing 39]
- Damage to ZEAMX [3]: 0%
- Activity against AMARE [1]: 100%

SMILES: Cc1nnc(NC(=O)c2ccc(C(F)(F)F)c(S(C)(=O)=O)c2C)o1 [drawing 43]
- Activity against AMARE [1]: 100%

SMILES: Cc1nnc(NC(=O)c2ccc(C(F)(F)F)c([S+](C)[O-])c2Cl)o1 (stereo not drawn) [drawing 32]
- Activity against ABUTH [2, 12]: 60%
- Activity against ALOMY ([4]; dosage 20 g/ha): 20%
- Activity against CYPES ([5]; dosage 20 g/ha): 60%

SMILES: Cc1nnc(NC(=O)c2ccc(C(F)(F)F)c(S(C)(=O)=O)c2C)o1 [drawing 14]
- Activity against ABUTH [2, 12]: 70%

SMILES: Cc1nnc(NC(=O)c2ccc(C(F)(F)F)c(S(C)(=O)=O)c2C)o1 [drawing 22]
- Activity against ABUTH [2, 12]: 70%

SMILES: Cc1nnc(NC(=O)c2ccc(C(F)(F)F)c(S(C)(=O)=O)c2C)o1 [drawing 11]
- Activity against STEME [6]: 90%

SMILES: Cc1nnc([N-]C(=O)c2ccc(C(F)(F)F)c(S(C)(=O)=O)c2C)o1.[Na+] [drawing 7]
- Damage to TRZAS [7]: 0%
- Activity against ABUTH [2, 12]: 100%

SMILES: CCc1nnc([N-]C(=O)c2ccc(S(=O)(=O)CC)c(C3=NOC(COC)C3)c2Cl)o1.[Na+] (stereo not drawn)
- Activity against ABUTH ([2]; dosage 320 g/ha): 90%
- Damage to ZEAMX ([8]; dosage 320 g/ha): 0%
- Activity against ALOMY ([4]; dosage 320 g/ha): 30%
- Activity against CYPES ([5]; dosage 320 g/ha): 80%

SMILES: Cc1nnc(NC(=O)c2ccc(C(F)(F)F)c(S(C)(=O)=O)c2C)o1 [drawing 10, reference compound]
- Activity against STEME [6]: 70%

SMILES: Cc1nnc([N-]C(=O)c2ccc(C(F)(F)F)c(S(C)(=O)=O)c2C)o1.[K+] [drawing 47]
- Damage to ZEAMX [3]: 0%
- Activity against AMARE [1]: 60%

SMILES: Cc1nnc(NC(=O)c2ccc(C(F)(F)F)c(S(C)(=O)=O)c2C)o1 [drawing 40, reference compound]
- Activity against AMARE [1]: 80%

SMILES: Cc1nnc([N-]C(=O)c2ccc(C(F)(F)F)c(S(C)(=O)=O)c2C)o1.[Na+] [drawing 25]
- Damage to ZEAMX ([8]; dosage 20 g/ha): 0%
- Activity against ALOMY ([4]; dosage 20 g/ha): 60%
- Activity against CYPES ([5]; dosage 20 g/ha): 40%

SMILES: Cc1nnc(NC(=O)c2ccc(C(F)(F)F)c(S(C)(=O)=O)c2C)o1 [drawing 20]
- Activity against ABUTH [2, 12]: 70%

SMILES: Cc1nnc(NC(=O)c2ccc(C(F)(F)F)c(S(C)(=O)=O)c2C)o1 [drawing 23]
- Activity against ABUTH [2, 12]: 100%
- Activity against ALOMY ([4]; dosage 20 g/ha): 70%
- Activity against CYPES ([5]; dosage 20 g/ha): 70%

SMILES: Cc1nnc(NC(=O)c2ccc(C(F)(F)F)c(S(C)(=O)=O)c2C)o1 [drawing 13]
- Activity against ABUTH [2, 12]: 100%

SMILES: Cc1nnc(NC(=O)c2ccc(C(F)(F)F)c(S(C)(=O)=O)c2C)o1 [drawing 19]
- Activity against ABUTH [2, 12]: 100%

SMILES: Cc1nnc(NC(=O)c2ccc(C(F)(F)F)c([S+](C)[O-])c2Cl)o1 (stereo not drawn) [drawing 57]
- Activity against VERPE [9]: 80%

SMILES: Cc1nnc(NC(=O)c2ccc(C(F)(F)F)c(S(C)(=O)=O)c2C)o1 [drawing 28]
- Activity against ABUTH [2, 12]: 70%
- Activity against ALOMY ([4]; dosage 20 g/ha): 20%
- Activity against CYPES ([5]; dosage 20 g/ha): 40%

SMILES: Cc1nnc(NC(=O)c2ccc(C(F)(F)F)c([S+](C)[O-])c2Cl)o1 (stereo not drawn) [drawing 33]
- Activity against ALOMY ([4]; dosage 20 g/ha): 60%

SMILES: Cc1nnc(NC(=O)c2ccc(C(F)(F)F)c(S(C)(=O)=O)c2C)o1 [drawing 49]
- Activity against AMARE [1]: 60%

SMILES: Cc1nnc(NC(=O)c2ccc(C(F)(F)F)c(S(C)(=O)=O)c2C)o1 [drawing 26]
- Activity against ABUTH [2, 12]: 70%
- Activity against ALOMY ([4]; dosage 20 g/ha): 20%
- Activity against CYPES ([5]; dosage 20 g/ha): 40%

SMILES: Cc1nnc(NC(=O)c2ccc(C(F)(F)F)c(S(C)(=O)=O)c2C)o1 [drawing 8]
- Activity against ABUTH [2, 12]: 70%

SMILES: Cc1nnc(NC(=O)c2ccc(C(F)(F)F)c(S(C)(=O)=O)c2C)o1 [drawing 46, reference compound]
- Activity against AMARE [1]: 80%

SMILES: CCc1nnc(NC(=O)c2ccc(S(=O)(=O)CC)c(C3=NOC(COC)C3)c2Cl)o1 (stereo not drawn) [drawing 36]
- Activity against ABUTH ([2]; dosage 320 g/ha): 90%
- Activity against ALOMY ([4]; dosage 320 g/ha): 10%
- Activity against CYPES ([5]; dosage 320 g/ha): 80%

SMILES: Cc1nnc(NC(=O)c2ccc(C(F)(F)F)c([S+](C)[O-])c2C)o1 (stereo not drawn) [drawing 56, reference compound]
- Activity against VERPE [9]: 50%
- Activity against ALOMY [10]: 60%

SMILES: Cc1nnc(NC(=O)c2ccc(C(F)(F)F)c(S(C)(=O)=O)c2C)o1 [drawing 44, reference compound]
- Activity against AMARE [1]: 80%

SMILES: Cc1nnc(NC(=O)c2ccc(C(F)(F)F)c(S(C)(=O)=O)c2C)o1 [drawing 52, reference compound]
- Activity against VERPE [9]: 60%
- Activity against ALOMY [10]: 60%

SMILES: CCc1nnc(NC(=O)c2ccc(S(=O)(=O)CC)c(C3=NOC(COC)C3)c2Cl)o1 (stereo not drawn) [drawing 38]
- Activity against ABUTH ([2]; dosage 320 g/ha): 10%
- Activity against ALOMY ([4]; dosage 320 g/ha): 10%
- Activity against CYPES ([5]; dosage 320 g/ha): 80%

SMILES: Cc1nnc([N-]C(=O)c2ccc(C(F)(F)F)c(S(C)(=O)=O)c2C)o1.[K+] [drawing 9]
- Damage to TRZAS [7]: 0%
- Activity against STEME [6]: 90%

SMILES: CCc1nnc(NC(=O)c2ccc(S(=O)(=O)CC)c(C3=NOC(COC)C3)c2Cl)o1 (stereo not drawn) [drawing 37]
- Activity against ABUTH ([2]; dosage 320 g/ha): 80%
- Damage to ZEAMX ([8]; dosage 320 g/ha): 10%
- Activity against ALOMY ([4]; dosage 320 g/ha): 20%
- Activity against CYPES ([5]; dosage 320 g/ha): 100%

SMILES: Cc1nnc(NC(=O)c2ccc(C(F)(F)F)c(S(C)(=O)=O)c2C)o1 [drawing 27]
- Activity against ABUTH [2, 12]: 100%
- Activity against ALOMY ([4]; dosage 20 g/ha): 60%
- Activity against CYPES ([5]; dosage 20 g/ha): 60%

SMILES: Cc1nnc(NC(=O)c2ccc(C(F)(F)F)c([S+](C)[O-])c2C)o1 (stereo not drawn) [drawing 58, reference compound]
- Activity against VERPE [9]: 50%
- Activity against ALOMY [10]: 60%

SMILES: Cc1nnc(NC(=O)c2ccc(C(F)(F)F)c(S(C)(=O)=O)c2C)o1 [drawing 45]
- Activity against AMARE [1]: 100%

SMILES: Cc1nnc(NC(=O)c2ccc(C(F)(F)F)c(S(C)(=O)=O)c2C)o1 [drawing 15]
- Activity against ABUTH [2, 12]: 100%

SMILES: Cc1nnc(NC(=O)c2ccc(C(F)(F)F)c(S(C)(=O)=O)c2C)o1 [drawing 30]
- Activity against ABUTH [2, 12]: 70%
- Activity against ALOMY ([4]; dosage 20 g/ha): 20%
- Activity against CYPES ([5]; dosage 20 g/ha): 40%

SMILES: Cc1nnc(NC(=O)c2ccc(C(F)(F)F)c(S(C)(=O)=O)c2C)o1 [drawing 29]
- Activity against ABUTH [2, 12]: 100%
- Activity against ALOMY ([4]; dosage 20 g/ha): 10%
- Activity against CYPES ([5]; dosage 20 g/ha): 70%

SMILES: Cc1nnc([N-]C(=O)c2ccc(C(F)(F)F)c([S+](C)[O-])c2Cl)o1.[Na+] (stereo not drawn)
- Activity against VERPE [9]: 70%
- Damage to TRZAS [11]: 0%

SMILES: Cc1nnc(NC(=O)c2ccc(C(F)(F)F)c(S(C)(=O)=O)c2C)o1 [drawing 24]
- Activity against ABUTH [2, 12]: 70%
- Activity against ALOMY ([4]; dosage 20 g/ha): 20%
- Activity against CYPES ([5]; dosage 20 g/ha): 40%

SMILES: Cc1nnc(NC(=O)c2ccc(C(F)(F)F)c(S(C)(=O)=O)c2C)o1 [drawing 12, reference compound]
- Activity against STEME [6]: 70%

SMILES: Cc1nnc(NC(=O)c2ccc(C(F)(F)F)c([S+](C)[O-])c2Cl)o1 (stereo not drawn) [drawing 34]
- Activity against ABUTH [2, 12]: 60%
- Activity against ALOMY ([4]; dosage 20 g/ha): 20%
- Activity against CYPES ([5]; dosage 20 g/ha): 60%

SMILES: Cc1nnc(NC(=O)c2ccc(C(F)(F)F)c(S(C)(=O)=O)c2C)o1 [drawing 53]
- Activity against VERPE [9]: 90%
- Activity against ALOMY [10]: 80%

SMILES: Cc1nnc([N-]C(=O)c2ccc(C(F)(F)F)c(S(C)(=O)=O)c2C)o1.[Na+] [drawing 51]
- Activity against VERPE [9]: 100%
- Activity against ALOMY [10]: 80%
- Damage to TRZAS [11]: 0%

SMILES: Cc1nnc(NC(=O)c2ccc(C(F)(F)F)c(S(C)(=O)=O)c2C)o1 [drawing 54, reference compound]
- Activity against VERPE [9]: 60%
- Activity against ALOMY [10]: 60%

SMILES: Cc1nnc(NC(=O)c2ccc(C(F)(F)F)c(S(C)(=O)=O)c2C)o1 [drawing 50, reference compound]
- Activity against AMARE [1]: 40%

SMILES: Cc1nnc(NC(=O)c2ccc(C(F)(F)F)c(S(C)(=O)=O)c2C)o1 [drawing 16]
- Activity against ABUTH [2, 12]: 70%

SMILES: Cc1nnc(NC(=O)c2ccc(C(F)(F)F)c(S(C)(=O)=O)c2C)o1 [drawing 42, reference compound]
- Activity against AMARE [1]: 80%
